pIC50: −log10 of the molar value.
Key:
GM1 production = assay: cells; type: cell-based; details: Homo sapiens, Jurkat, 72 h
[1] = biological target: glucosylceramide synthase (GCS) (Homo sapiens (Human), UniProt Q16739); assay: Evaluation of inhibitory activities against GCS (enzyme reaction with A549 cell lysate, NBD C6-ceramide, HPLC fluorescence); type: biochemical; details: GCS activity in A549 cell lysate, 37° C. for 90 minutes
In short: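 Lysate of A549 cells in 50 mM HEPES pH 7.3 incubated with test compound and NBD C6-ceramide at 37 °C for 90 min; lipids extracted with chloroform/methanol and GlcCer and ceramide peaks quantified by HPLC fluorescence. Activity from GlcCer area fraction, normalised between DMSO and ibiglustat controls.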

Chain of glucosylceramide synthase (GCS) (Q16739 whole entry, looked up): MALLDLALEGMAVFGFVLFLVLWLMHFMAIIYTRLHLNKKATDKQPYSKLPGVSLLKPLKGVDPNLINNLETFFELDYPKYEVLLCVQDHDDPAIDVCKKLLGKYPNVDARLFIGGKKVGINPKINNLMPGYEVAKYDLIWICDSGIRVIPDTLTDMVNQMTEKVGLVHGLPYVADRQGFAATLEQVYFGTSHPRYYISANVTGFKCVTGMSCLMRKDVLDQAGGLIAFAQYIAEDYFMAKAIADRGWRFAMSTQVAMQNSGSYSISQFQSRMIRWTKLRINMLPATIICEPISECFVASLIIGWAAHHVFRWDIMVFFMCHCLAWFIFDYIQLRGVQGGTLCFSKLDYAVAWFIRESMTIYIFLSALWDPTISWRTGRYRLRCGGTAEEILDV

Row | SMILES | pIC50 (GM1 production) | pIC50 [1]
1 | COCCOc1cccc(-c2ccc3c(c2)C(NC(=O)O[C@@H]2CN4CCC2CC4)C(C)(C)CC3)c1 (stereo partly drawn) [Example 166, (S)-quinuclidin-3-yl (7-(3-(2-methoxyethoxy)phenyl)-2,2-dimethyl-1,2,3,4-tetrahydronaphthalen-1-yl)carbamate] | 6.41 | 7.25
2 | COCCOc1ccccc1-c1ccc2c(c1)C(NC(=O)O[C@@H]1CN3CCC1CC3)C(C)(C)CC2 (stereo partly drawn) [Example 167, (S)-quinuclidin-3-yl (7-(2-(2-methoxyethoxy)phenyl)-2,2-dimethyl-1,2,3,4-tetrahydronaphthalen-1-yl)carbamate] | 6.99 | 7.71
3 | COCOc1ccc(-c2ccc3c(c2)C(NC(=O)O[C@@H]2CN4CCC2CC4)C(C)(C)CC3)cc1 (stereo partly drawn) [Example 168, (S)-quinuclidin-3-yl (7-(4-(methoxymethoxy)phenyl)-2,2-dimethyl-1,2,3,4-tetrahydronaphthalen-1-yl)carbamate] | 7.15 | 7.75
4 | COCOc1cccc(-c2ccc3c(c2)C(NC(=O)O[C@@H]2CN4CCC2CC4)C(C)(C)CC3)c1 (stereo partly drawn) [Example 169, (S)-quinuclidin-3-yl (7-(3-(methoxymethoxy)phenyl)-2,2-dimethyl-1,2,3,4-tetrahydronaphthalen-1-yl)carbamate] | 6.35 | 7.39
5 | COCOc1ccccc1-c1ccc2c(c1)C(NC(=O)O[C@@H]1CN3CCC1CC3)C(C)(C)CC2 (stereo partly drawn) [Example 170, (S)-quinuclidin-3-yl (7-(2-(methoxymethoxy)phenyl)-2,2-dimethyl-1,2,3,4-tetrahydronaphthalen-1-yl)carbamate] | 7.41 | 8.03
6 | O=C(NC1c2cc(-c3ccc(F)cc3)ccc2CCC12CC2)O[C@@H]1CN2CCC1CC2 (stereo partly drawn) [Example 171, (S)-quinuclidin-3-yl (7′-(4-fluorophenyl)-3′,4′-dihydro-1′H-spiro[cyclopropane-1,2′-naphthalen]-1′-yl)carbamate] | 7.02 | 8.27
7 | O=C(NC1c2cc(-c3ccc(Cl)cc3)ccc2CCC12CC2)O[C@@H]1CN2CCC1CC2 (stereo partly drawn) [Example 172, (S)-quinuclidin-3-yl (7′-(4-chlorophenyl)-3′,4′-dihydro-1′H-spiro[cyclopropane-1,2′-naphthalen]-1′-yl)carbamate] | 7.17 | 8.32
8 | O=C(NC1c2cc(-c3ccc(C(F)(F)F)cc3)ccc2CCC12CC2)O[C@@H]1CN2CCC1CC2 (stereo partly drawn) [Example 173, (S)-quinuclidin-3-yl (7′-(4-(trifluoromethyl)phenyl)-3′,4′-dihydro-1′H-spiro[cyclopropane-1,2′-naphthalen]-1′-yl)carbamate] | 7.72 | 8.79
9 | O=C(NC1c2cc(-c3ccc(OC(F)(F)F)cc3)ccc2CCC12CC2)O[C@@H]1CN2CCC1CC2 (stereo partly drawn) [Example 174, (S)-quinuclidin-3-yl (7′-(4-(trifluoromethoxy)phenyl)-3′,4′-dihydro-1′H-spiro[cyclopropane-1,2′-naphthalen]-1′-yl)carbamate] | 7.41 | 8.36
10 | O=C(NC1c2cc(-c3cccc(F)c3)ccc2CCC12CC2)O[C@@H]1CN2CCC1CC2 (stereo partly drawn) [Example 175, (S)-quinuclidin-3-yl (7′-(3-fluorophenyl)-3′,4′-dihydro-1′H-spiro[cyclopropane-1,2′-naphthalen]-1′-yl)carbamate] | 6.78 | 7.83
11 | O=C(NC1c2cc(-c3cccc(Cl)c3)ccc2CCC12CC2)O[C@@H]1CN2CCC1CC2 (stereo partly drawn) [Example 176, (S)-quinuclidin-3-yl (7′-(3-chlorophenyl)-3′,4′-dihydro-1′H-spiro[cyclopropane-1,2′-naphthalen]-1′-yl)carbamate] | 6.68 | 7.83
12 | O=C(NC1c2cc(-c3cccc(C(F)(F)F)c3)ccc2CCC12CC2)O[C@@H]1CN2CCC1CC2 (stereo partly drawn) [Example 177, (S)-quinuclidin-3-yl (7′-(3-(trifluoromethyl)phenyl)-3′,4′-dihydro-1′H-spiro[cyclopropane-1,2′-naphthalen]-1′-yl)carbamate] | 6.77 | 7.63
13 | O=C(NC1c2cc(-c3cccc(OC(F)(F)F)c3)ccc2CCC12CC2)O[C@@H]1CN2CCC1CC2 (stereo partly drawn) [Example 178, (S)-quinuclidin-3-yl (7′-(3-(trifluoromethoxy)phenyl)-3′,4′-dihydro-1′H-spiro[cyclopropane-1,2′-naphthalen]-1′-yl)carbamate] | 6.56 | 7.64
14 | O=C(NC1c2cc(-c3ccccc3F)ccc2CCC12CC2)O[C@@H]1CN2CCC1CC2 (stereo partly drawn) [Example 179, (S)-quinuclidin-3-yl (7′-(2-fluorophenyl)-3′,4′-dihydro-1′H-spiro[cyclopropane-1,2′-naphthalen]-1′-yl)carbamate] | 6.94 | 8.00
15 | O=C(NC1c2cc(-c3ccccc3Cl)ccc2CCC12CC2)O[C@@H]1CN2CCC1CC2 (stereo partly drawn) [Example 180, (S)-quinuclidin-3-yl (7′-(2-chlorophenyl)-3′,4′-dihydro-1′H-spiro[cyclopropane-1,2′-naphthalen]-1′-yl)carbamate] | 7.00 | 8.02
16 | O=C(NC1c2cc(-c3ccccc3C(F)(F)F)ccc2CCC12CC2)O[C@@H]1CN2CCC1CC2 (stereo partly drawn) [Example 181, (S)-quinuclidin-3-yl (7′-(2-(trifluoromethyl)phenyl)-3′,4′-dihydro-1′H-spiro[cyclopropane-1,2′-naphthalen]-1′-yl)carbamate] | 7.04 | 7.90
17 | O=C(NC1c2cc(-c3ccccc3OC(F)(F)F)ccc2CCC12CC2)O[C@@H]1CN2CCC1CC2 (stereo partly drawn) [Example 182, (S)-quinuclidin-3-yl (7′-(2-(trifluoromethoxy)phenyl)-3′,4′-dihydro-1′H-spiro[cyclopropane-1,2′-naphthalen]-1′-yl)carbamate] | 7.39 | 7.92
18 | Cc1ccc(-c2ccc3c(c2)C(NC(=O)O[C@@H]2CN4CCC2CC4)C2(CC3)CC2)cc1 (stereo partly drawn) [Example 183, (S)-quinuclidin-3-yl (7′-(p-tolyl)-3′,4′-dihydro-1′H-spiro[cyclopropane-1,2′-naphthalen]-1′-yl)carbamate] | 6.84 | 7.89
19 | O=C(NC1c2cc(-c3ccc(OC(F)F)cc3)ccc2CCC12CC2)O[C@@H]1CN2CCC1CC2 (stereo partly drawn) [Example 184, (S)-quinuclidin-3-yl (7′-(4-(difluoromethoxy)phenyl)-3′,4′-dihydro-1′H-spiro[cyclopropane-1,2′-naphthalen]-1′-yl)carbamate] | 7.06 | 8.12
20 | COCOc1ccc(-c2ccc3c(c2)C(NC(=O)O[C@@H]2CN4CCC2CC4)C2(CC3)CC2)cc1 (stereo partly drawn) [Example 185, (S)-quinuclidin-3-yl (7′-(4-(methoxymethoxy)phenyl)-3′,4′-dihydro-1′H-spiro[cyclopropane-1,2′-naphthalen]-1′-yl)carbamate] | 7.14 | 7.83
21 | O=C(NC1c2ccc(-c3ccc(F)cc3)cc2CCC12CC2)O[C@@H]1CN2CCC1CC2 (stereo partly drawn) [Example 186, (S)-quinuclidin-3-yl (6′-(4-fluorophenyl)-3′,4′-dihydro-1′H-spiro[cyclopropane-1,2′-naphthalen]-1′-yl)carbamate] | 7.10 | 7.61
22 | O=C(NC1c2ccc(-c3ccc(Cl)cc3)cc2CCC12CC2)O[C@@H]1CN2CCC1CC2 (stereo partly drawn) [Example 187, (S)-quinuclidin-3-yl (6′-(4-chlorophenyl)-3′,4′-dihydro-1′H-spiro[cyclopropane-1,2′-naphthalen]-1′-yl)carbamate] | 7.45 | 7.86
23 | O=C(NC1c2ccc(-c3ccc(C(F)(F)F)cc3)cc2CCC12CC2)O[C@@H]1CN2CCC1CC2 (stereo partly drawn) [Example 188, (S)-quinuclidin-3-yl (6′-(4-(trifluoromethyl)phenyl)-3′,4′-dihydro-1′H-spiro[cyclopropane-1,2′-naphthalen]-1′-yl)carbamate] | 7.47 | 7.79
24 | O=C(NC1c2ccc(-c3ccc(OC(F)(F)F)cc3)cc2CCC12CC2)O[C@@H]1CN2CCC1CC2 (stereo partly drawn) [Example 189, (S)-quinuclidin-3-yl (6′-(4-(trifluoromethoxy)phenyl)-3′,4′-dihydro-1′H-spiro[cyclopropane-1,2′-naphthalen]-1′-yl)carbamate] | 7.60 | 7.72
25 | O=C(NC1c2ccc(-c3cccc(F)c3)cc2CCC12CC2)O[C@@H]1CN2CCC1CC2 (stereo partly drawn) [Example 190, (S)-quinuclidin-3-yl (6′-(3-fluorophenyl)-3′,4′-dihydro-1′H-spiro[cyclopropane-1,2′-naphthalen]-1′-yl)carbamate] | 7.70 | 7.92
26 | O=C(NC1c2ccc(-c3cccc(Cl)c3)cc2CCC12CC2)O[C@@H]1CN2CCC1CC2 (stereo partly drawn) [Example 191, (S)-quinuclidin-3-yl (6′-(3-chlorophenyl)-3′,4′-dihydro-1′H-spiro[cyclopropane-1,2′-naphthalen]-1′-yl)carbamate] | 7.84 | 8.00
27 | O=C(NC1c2ccc(-c3cccc(C(F)(F)F)c3)cc2CCC12CC2)O[C@@H]1CN2CCC1CC2 (stereo partly drawn) [Example 192, (S)-quinuclidin-3-yl (6′-(3-(trifluoromethyl)phenyl)-3′,4′-dihydro-1′H-spiro[cyclopropane-1,2′-naphthalen]-1′-yl)carbamate] | 7.85 | 7.89
28 | O=C(NC1c2ccc(-c3cccc(OC(F)(F)F)c3)cc2CCC12CC2)O[C@@H]1CN2CCC1CC2 (stereo partly drawn) [Example 193, (S)-quinuclidin-3-yl (6′-(3-(trifluoromethoxy)phenyl)-3′,4′-dihydro-1′H-spiro[cyclopropane-1,2′-naphthalen]-1′-yl)carbamate] | 7.67 | 7.68
29 | COCCOc1ccc(-c2ccc3c(c2)CCC2(CC2)C3NC(=O)O[C@@H]2CN3CCC2CC3)cc1 (stereo partly drawn) [Example 194, (S)-quinuclidin-3-yl (6′-(4-(2-methoxyethoxy)phenyl)-3′,4′-dihydro-1′H-spiro[cyclopropane-1,2′-naphthalen]-1′-yl)carbamate] | 8.10 | 8.99
